Reference: patent publication US6806229B1, “Herbicidally active pyridine sulfonyl urea derivatives” (LG Life Sciences, priority 2003, dated 2004)
Like-named read-outs stand apart in the source and are kept apart here.

Experiments:
Format in all cases: in vivo
[1] = tested on: Sagittaria pygmaea (SAGPY); experiment: Weed spectrum in paddy field, SAGPY; settings: 20 g/ha; tubers planted 1 cm deep; applied after 5 days; observed two weeks
Protocol: (§1) Suitable herbicidal compositions were prepared by mixing and dissolving 1 part by weight of the active compound with 5 parts by weight of acetone and 1 part by weight of alkylaryl polyglycolether as an emulsifier and then diluting with water to the predetermined concentration. Application was made by dropping the herbicide solutions onto the water surface of the pots.
(§2) Pots having a surface area of 500 cm^2 were filled with the soil in a muddy state as mentioned above. Seeds of annual weeds such as Monochoria vaginaiis (MOOVA), Lindernia procumbens (LIDPR), Rotala indica (ROTIN), Scirpus jumcoides (SCPJU), etc. were sown on the surface layer of soil, and then were planted tubers of perennial weeds such as Cyperus serotinus (CYPSE) and Sagittaria pygmaea (SAGPY) in a depth of 1 cm, and Eleocharis kuroguwai (ELOKU) and Sagittaria trifolia (SAGTR) in a depth of 4 cm. After 5 days, the chemicals were formulated as mentioned above and applied by dropping to the water surface of the pots.

Echinochloa crus-galli = experiment: Herbicidal activity to barnyardgrass in paddy condition, pre- and post-emergence, greenhouse pot test; settings: Echinochloa crus-galli, 336 h, visual rating after two weeks
Excerpt: (§3) Pots having a surface area of 150 cm^2 were filled with a small amount of fertilizer and sterilized paddy field soil in a muddy state with a depth of 5 cm. Five (5) seeds of pre-germinated rice were directly sown on the soil surface and three (3) rice seedlings (2˜3 leaves) prepared in advance were transplanted in a depth of 2 cm in each pot. In another pot, seeds of barnyardgrass were sown and incorporated into the surface layer of soil. After sowing and transplanting of rice plant and sowing of barnyardgrass, the pots were flooded with water 3 cm deep and kept in a greenhouse. The rice plant was treated with the chemicals 5 days after sowing or transplanting, and barnyardgrass was treated with the chemicals at the pre-emergence (5 days after from sowing) and post-emergence stage (at the three-leaf stage, usually after 15 days from sowing).
as §1

[2] = tested on: Eleocharis kuroguwai (ELOKU); experiment: Weed spectrum in paddy field, ELOKU; settings: 20 g/ha; tubers planted 4 cm deep; applied after 5 days; observed two weeks
Protocol: as §1, §2

[3] = tested on: Monochoria vaginaiis (MOOVA); experiment: Weed spectrum in paddy field, MOOVA; settings: 20 g/ha; applied 5 days after sowing; observed two weeks
Protocol: as §1, §2

[4] = tested on: Sagittaria trifolia (SAGTR); experiment: Weed spectrum in paddy field, SAGTR; settings: 20 g/ha; tubers planted 4 cm deep; applied after 5 days; observed two weeks
Protocol: as §1, §2

Oryza sativa = experiment: Phytotoxicity to rice (direct-seeded and transplanted) in paddy condition, greenhouse pot test; settings: visual rating after two weeks; for Phytotoxicity, Oryza sativa, Seed: direct-seeded rice, treated 5 days after sowing; for Phytotoxicity, Oryza sativa, Transplanted: transplanted rice seedlings, treated 5 days after transplanting
Excerpt: as §3, §1

[5] = tested on: Cyperus serotinus (CYPSE); experiment: Weed spectrum in paddy field, CYPSE; settings: 20 g/ha; tubers planted 1 cm deep; applied after 5 days; observed two weeks
Protocol: as §1, §2

[6] = tested on: Scirpus jumcoides (SCPJU); experiment: Weed spectrum in paddy field, SCPJU; settings: 20 g/ha; applied 5 days after sowing; observed two weeks
Protocol: as §1, §2

Rotala indica (ROTIN) = experiment: Weed spectrum in paddy field, ROTIN; settings: 20 g/ha; applied 5 days after sowing; observed two weeks
Protocol: as §1, §2

[7] = tested on: Lindernia procumbens (LIDPR); experiment: Weed spectrum in paddy field, LIDPR; settings: 20 g/ha; applied 5 days after sowing; observed two weeks
Protocol: as §1, §2

[8] = post-emergence, three-leaf stage, read-out: Herbicidal activity, Echinochloa crus-galli, Post-emergence (3-Leaf stage)
[9] = pre-emergence (5 days after sowing), read-out: Herbicidal activity, Echinochloa crus-galli, Pre-emergence
[10] = pre-emergence (5 days after sowing), 0 = no activity, 100 = complete death, read-out: Herbicidal activity, Echinochloa crus-galli, Pre-emergence
[11] = 80 g/ha, 0 = none, 100 = complete death

SMILES	Weed spectrum, Perennial weeds, SAGPY [1]	pest or weed control at 5 g/ha (Echinochloa crus-galli; [8]) [%]	pest or weed control at 5 g/ha (Echinochloa crus-galli; [9]) [%]	pest or weed control at 10 g/ha (Echinochloa crus-galli; [8]) [%]	pest or weed control at 10 g/ha (Echinochloa crus-galli; [9]) [%]	pest or weed control at 20 g/ha (Echinochloa crus-galli; [8]) [%]	pest or weed control at 20 g/ha (Echinochloa crus-galli; [9]) [%]	pest or weed control at 30 g/ha (Echinochloa crus-galli; [8]) [%]	pest or weed control at 30 g/ha (Echinochloa crus-galli; [10]) [%]	Weed spectrum, Perennial weeds, ELOKU [2]	Weed spectrum, Annual weeds, MOOVA [3]	Weed spectrum, Perennial weeds, SAGTR [4]	Phytotoxicity, Oryza sativa, Seed (Oryza sativa; 10 g/ha) [%]	Phytotoxicity, Oryza sativa, Transplanted (Oryza sativa; 10 g/ha) [%]	Phytotoxicity, Oryza sativa, Seed (Oryza sativa; 20 g/ha) [%]	Phytotoxicity, Oryza sativa, Transplanted (Oryza sativa; 20 g/ha) [%]	Phytotoxicity, Oryza sativa, Seed (Oryza sativa; 40 g/ha) [%]	Phytotoxicity, Oryza sativa, Transplanted (Oryza sativa; 40 g/ha) [%]	Phytotoxicity, Oryza sativa, Seed (Oryza sativa; [11]) [%]	Phytotoxicity, Oryza sativa, Transplanted (Oryza sativa; 80 g/ha) [%]	other results
COCC(=O)O[C@H](c1ncccc1S(=O)(=O)NC(=O)Nc1nc(OC)cc(OC)n1)[C@H](C)F [Com. 2]	95	50	60	90	100	100	100	100	100	95	100	90	0	0	0	0	20	10	30	10	Weed spectrum, Perennial weeds, CYPSE [5]: 100; Weed spectrum, Annual weeds, SCPjU [6]: 100; Weed spectrum, Annual weeds, ROTIN (Rotala indica (ROTIN)): 100; Weed spectrum, Annual weeds, LIDPR [7]: 100
COCCC(=O)O[C@H](c1ncccc1S(=O)(=O)NC(=O)Nc1nc(OC)cc(OC)n1)[C@H](C)F [Com. 4]	90	60	60	90	95	100	100	100	100	95	100	85	0	0	0	0	20	10	30	20	Weed spectrum, Perennial weeds, CYPSE [5]: 100; Weed spectrum, Annual weeds, SCPjU [6]: 100; Weed spectrum, Annual weeds, ROTIN (Rotala indica (ROTIN)): 100; Weed spectrum, Annual weeds, LIDPR [7]: 100
